Assay results: patent US20260042764A1, “COMPOSITIONS AND METHODS FOR INHIBITION OF KRAS” (TheRas, Inc., priority 2022, published 2026)

molecular target: T1, Avi-KRAS G12R (1-169) GppNHp/RAF1 RBD-3xFLAG (52-151) (Homo sapiens, UniProt P01116, G12R); assay: Raf1-KRAS G12R-GppNHP disruption HTRF assay (Biological Example 1); format: binding; details: KRAS G12R, GppNHp-loaded; Table 11
T1 construct: Avi-KRAS G12R (1-169)
Method in brief: (§1)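 Read-out is HTRF signal of the KRAS–RAF1 RBD complex, reported as percentage of activity relative to DMSO (100%). Protein mix and detection reagents each incubated 1 h at room temperature with 700 rpm shaking. Buffer: 50 mM Tris pH 7.5, 100 mM NaCl, 5 mM MgCl2, 0.1% BSA, 0.01% Tween, 10% DMSO.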

T1 sequence (P01116 1-169 isoform P01116-2 G12R): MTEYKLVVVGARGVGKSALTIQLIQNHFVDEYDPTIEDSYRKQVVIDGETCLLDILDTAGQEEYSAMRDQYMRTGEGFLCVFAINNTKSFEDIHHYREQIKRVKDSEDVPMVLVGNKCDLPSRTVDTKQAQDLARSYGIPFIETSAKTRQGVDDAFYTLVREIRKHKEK

**Q.** With `C[C@@H]1COCCN1c1nc(OC[C@@]23CCCN2C[C@H](F)C3)nc2c(F)c(-c3ccc(F)c4sc(N)c(C#N)c34)c(C(F)(F)F)cc12` [Compound 134] as the compound, how does the IC50 read?
**A.** Its IC50 is 0.1 to 1 µM.

**Q.** Which IC50 does the source give for `C[C@H]1COCCN1c1nc(OC[C@@]23CCCN2C[C@H](F)C3)nc2c(F)c(-c3ccc(F)c4sc(N)c(C#N)c34)c(C(F)(F)F)cc12` [Compound 135] here?
**A.** The IC50 was 0.1 to 1 µM.

**Q.** Which IC50 does the source give for `N#CC[C@@H]1CN(c2nc(OC[C@@]34CCCN3C[C@H](F)C4)nc3c(F)c(-c4ccc(F)c5sc(N)c(C#N)c45)c(C(F)(F)F)cc23)CCO1` [Compound 136] here?
**A.** The IC50 was 0.1 to 1 µM.

**Q.** With `N#CC[C@H]1CN(c2nc(OC[C@@]34CCCN3C[C@H](F)C4)nc3c(F)c(-c4ccc(F)c5sc(N)c(C#N)c45)c(C(F)(F)F)cc23)CCO1` [Compound 137] as the compound, how does the IC50 read?
**A.** Its IC50 is 0.1 to 1 µM.

**Q.** With `C[C@@H]1CN(c2nc(OC[C@@]34CCCN3C[C@H](F)C4)nc3c(F)c(-c4ccc(F)c5sc(N)c(C#N)c45)c(C(F)(F)F)cc23)[C@@H](C)CO1` [Compound 140] as the compound, how does the IC50 read?
**A.** The IC50 was 1 to 10 µM.

**Q.** With `C[C@@H]1CN(c2nc(OC[C@@]34CCCN3C[C@H](F)C4)nc3c(F)c(-c4ccc(F)c5sc(N)c(C#N)c45)c(C(F)(F)F)cc23)CCO1` [Compound 141] as the compound, how does the IC50 read?
**A.** Its IC50 is 0.1 to 1 µM.

tested on: GP2d cells (KRAS G12D); assay: Cell-based pERK HTRF assay in GP2d cell (Biological Example 2); details: GP2d, GP2d (KRAS G12D) cells, pERK HTRF
Method in brief: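 Treatment with test compounds lasted one hour in DMEM containing 10% FBS, with DMSO held at 0.25%. Dilution series: 9 points, half-log spacing, highest 1 μM or 100 nM. Lysates were incubated 4–24 h at room temperature with antibody mix, then HTRF was read at 320 nm excitation.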

**Q.** With `C[C@@H]1COCCN1c1nc(OC[C@@]23CCCN2C[C@H](F)C3)nc2c(F)c(-c3ccc(F)c4sc(N)c(C#N)c34)c(C(F)(F)F)cc12` [Compound 134] as the compound, how does the IC50 read?
**A.** Its IC50 is under 0.1 µM.

**Q.** How did the IC50 turn out when `C[C@H]1COCCN1c1nc(OC[C@@]23CCCN2C[C@H](F)C3)nc2c(F)c(-c3ccc(F)c4sc(N)c(C#N)c34)c(C(F)(F)F)cc12` [Compound 135] was run?
**A.** The IC50 was under 0.1 µM.

**Q.** With `N#CC[C@@H]1CN(c2nc(OC[C@@]34CCCN3C[C@H](F)C4)nc3c(F)c(-c4ccc(F)c5sc(N)c(C#N)c45)c(C(F)(F)F)cc23)CCO1` [Compound 136] as the compound, how does the IC50 read?
**A.** Its IC50 is under 0.1 µM.

**Q.** Which IC50 does the source give for `N#CC[C@H]1CN(c2nc(OC[C@@]34CCCN3C[C@H](F)C4)nc3c(F)c(-c4ccc(F)c5sc(N)c(C#N)c45)c(C(F)(F)F)cc23)CCO1` [Compound 137] here?
**A.** The IC50 was under 0.1 µM.

**Q.** `C[C@@H]1CN(c2nc(OC[C@@]34CCCN3C[C@H](F)C4)nc3c(F)c(-c4ccc(F)c5sc(N)c(C#N)c45)c(C(F)(F)F)cc23)[C@@H](C)CO1` [Compound 140] was tested. Which IC50 did it give?
**A.** The IC50 was under 0.1 µM.

**Q.** How did the IC50 turn out when `C[C@@H]1CN(c2nc(OC[C@@]34CCCN3C[C@H](F)C4)nc3c(F)c(-c4ccc(F)c5sc(N)c(C#N)c45)c(C(F)(F)F)cc23)CCO1` [Compound 141] was run?
**A.** The IC50 was under 0.1 µM.

molecular target: T2, Avi-KRAS G12D (1-169) GppNHp/RAF1 RBD-3xFLAG (52-151) (Homo sapiens, UniProt P01116, G12D); assay: Raf1-KRAS G12D-GppNHP disruption HTRF assay (Biological Example 1); format: binding; details: KRAS G12D, GppNHp-loaded; Table 11
T2 construct: Avi-KRAS G12D (1-169)
Method in brief: as §1

T2 sequence (P01116 1-169 isoform P01116-2 G12D): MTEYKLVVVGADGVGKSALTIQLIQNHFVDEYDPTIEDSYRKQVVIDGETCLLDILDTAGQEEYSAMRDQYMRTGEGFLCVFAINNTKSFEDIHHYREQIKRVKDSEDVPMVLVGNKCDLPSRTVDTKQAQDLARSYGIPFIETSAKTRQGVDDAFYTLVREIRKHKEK

**Q.** With `C[C@@H]1COCCN1c1nc(OC[C@@]23CCCN2C[C@H](F)C3)nc2c(F)c(-c3ccc(F)c4sc(N)c(C#N)c34)c(C(F)(F)F)cc12` [Compound 134] as the compound, how does the IC50 read?
**A.** Its IC50 is 0.1 to 1 µM.

**Q.** `C[C@H]1COCCN1c1nc(OC[C@@]23CCCN2C[C@H](F)C3)nc2c(F)c(-c3ccc(F)c4sc(N)c(C#N)c34)c(C(F)(F)F)cc12` [Compound 135] was tested. Which IC50 did it give?
**A.** The IC50 was under 0.1 µM.

**Q.** `N#CC[C@@H]1CN(c2nc(OC[C@@]34CCCN3C[C@H](F)C4)nc3c(F)c(-c4ccc(F)c5sc(N)c(C#N)c45)c(C(F)(F)F)cc23)CCO1` [Compound 136] was tested. Which IC50 did it give?
**A.** The IC50 was 0.1 to 1 µM.

**Q.** How did the IC50 turn out when `N#CC[C@H]1CN(c2nc(OC[C@@]34CCCN3C[C@H](F)C4)nc3c(F)c(-c4ccc(F)c5sc(N)c(C#N)c45)c(C(F)(F)F)cc23)CCO1` [Compound 137] was run?
**A.** Its IC50 is 0.1 to 1 µM.

**Q.** For `C[C@@H]1CN(c2nc(OC[C@@]34CCCN3C[C@H](F)C4)nc3c(F)c(-c4ccc(F)c5sc(N)c(C#N)c45)c(C(F)(F)F)cc23)[C@@H](C)CO1` [Compound 140], which IC50 is on record?
**A.** The IC50 was 0.1 to 1 µM.

**Q.** Which IC50 does the source give for `C[C@@H]1CN(c2nc(OC[C@@]34CCCN3C[C@H](F)C4)nc3c(F)c(-c4ccc(F)c5sc(N)c(C#N)c45)c(C(F)(F)F)cc23)CCO1` [Compound 141] here?
**A.** The IC50 was 0.1 to 1 µM.

molecular target: T3, Avi-KRAS G12V (1-169) GppNHp/RAF1 RBD-3xFLAG (52-151) (Homo sapiens, UniProt P01116, G12V); assay: Raf1-KRAS G12V-GppNHP disruption HTRF assay (Biological Example 1); format: binding; details: KRAS G12V, GppNHp-loaded; Table 11
T3 construct: Avi-KRAS G12V (1-169)
Method in brief: as §1

T3 sequence (P01116 1-169 isoform P01116-2 G12V): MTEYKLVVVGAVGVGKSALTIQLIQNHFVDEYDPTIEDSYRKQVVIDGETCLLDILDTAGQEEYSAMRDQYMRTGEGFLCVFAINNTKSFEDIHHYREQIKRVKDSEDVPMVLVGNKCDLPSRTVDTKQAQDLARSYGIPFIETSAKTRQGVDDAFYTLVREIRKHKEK

**Q.** Which IC50 does the source give for `C[C@@H]1COCCN1c1nc(OC[C@@]23CCCN2C[C@H](F)C3)nc2c(F)c(-c3ccc(F)c4sc(N)c(C#N)c34)c(C(F)(F)F)cc12` [Compound 134] here?
**A.** Its IC50 is 1 to 10 µM.

**Q.** Which IC50 does the source give for `C[C@H]1COCCN1c1nc(OC[C@@]23CCCN2C[C@H](F)C3)nc2c(F)c(-c3ccc(F)c4sc(N)c(C#N)c34)c(C(F)(F)F)cc12` [Compound 135] here?
**A.** Its IC50 is 0.1 to 1 µM.

**Q.** Which IC50 does the source give for `N#CC[C@@H]1CN(c2nc(OC[C@@]34CCCN3C[C@H](F)C4)nc3c(F)c(-c4ccc(F)c5sc(N)c(C#N)c45)c(C(F)(F)F)cc23)CCO1` [Compound 136] here?
**A.** Its IC50 is 1 to 10 µM.

**Q.** Which IC50 does the source give for `N#CC[C@H]1CN(c2nc(OC[C@@]34CCCN3C[C@H](F)C4)nc3c(F)c(-c4ccc(F)c5sc(N)c(C#N)c45)c(C(F)(F)F)cc23)CCO1` [Compound 137] here?
**A.** The IC50 was 1 to 10 µM.

**Q.** How did the IC50 turn out when `C[C@@H]1CN(c2nc(OC[C@@]34CCCN3C[C@H](F)C4)nc3c(F)c(-c4ccc(F)c5sc(N)c(C#N)c45)c(C(F)(F)F)cc23)[C@@H](C)CO1` [Compound 140] was run?
**A.** Its IC50 is 1 to 10 µM.

**Q.** For `C[C@@H]1CN(c2nc(OC[C@@]34CCCN3C[C@H](F)C4)nc3c(F)c(-c4ccc(F)c5sc(N)c(C#N)c45)c(C(F)(F)F)cc23)CCO1` [Compound 141], which IC50 is on record?
**A.** Its IC50 is 1 to 10 µM.

molecular target: T4, Avi-KRAS WT (1-169) GppNHp/RAF1 RBD-3xFLAG (52-151) (Homo sapiens, UniProt P01116); assay: Raf1-KRAS WT-GppNHP disruption HTRF assay (Biological Example 1); format: binding; details: KRAS WT, GppNHp-loaded; Table 11
T4 construct: Avi-KRAS WT (1-169)
Method in brief: as §1

T4 sequence (P01116 1-169 isoform P01116-2): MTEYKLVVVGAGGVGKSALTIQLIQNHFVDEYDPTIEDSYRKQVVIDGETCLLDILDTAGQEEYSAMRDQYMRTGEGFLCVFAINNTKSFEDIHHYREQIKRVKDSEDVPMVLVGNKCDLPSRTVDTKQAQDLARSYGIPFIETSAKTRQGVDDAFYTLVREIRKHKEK

**Q.** `C[C@@H]1COCCN1c1nc(OC[C@@]23CCCN2C[C@H](F)C3)nc2c(F)c(-c3ccc(F)c4sc(N)c(C#N)c34)c(C(F)(F)F)cc12` [Compound 134] was tested. Which IC50 did it give?
**A.** Its IC50 is 0.1 to 1 µM.

**Q.** For `C[C@H]1COCCN1c1nc(OC[C@@]23CCCN2C[C@H](F)C3)nc2c(F)c(-c3ccc(F)c4sc(N)c(C#N)c34)c(C(F)(F)F)cc12` [Compound 135], which IC50 is on record?
**A.** Its IC50 is 0.1 to 1 µM.

**Q.** For `N#CC[C@@H]1CN(c2nc(OC[C@@]34CCCN3C[C@H](F)C4)nc3c(F)c(-c4ccc(F)c5sc(N)c(C#N)c45)c(C(F)(F)F)cc23)CCO1` [Compound 136], which IC50 is on record?
**A.** Its IC50 is 0.1 to 1 µM.

**Q.** With `N#CC[C@H]1CN(c2nc(OC[C@@]34CCCN3C[C@H](F)C4)nc3c(F)c(-c4ccc(F)c5sc(N)c(C#N)c45)c(C(F)(F)F)cc23)CCO1` [Compound 137] as the compound, how does the IC50 read?
**A.** The IC50 was 0.1 to 1 µM.

**Q.** Which IC50 does the source give for `C[C@@H]1CN(c2nc(OC[C@@]34CCCN3C[C@H](F)C4)nc3c(F)c(-c4ccc(F)c5sc(N)c(C#N)c45)c(C(F)(F)F)cc23)[C@@H](C)CO1` [Compound 140] here?
**A.** The IC50 was 1 to 10 µM.

**Q.** `C[C@@H]1CN(c2nc(OC[C@@]34CCCN3C[C@H](F)C4)nc3c(F)c(-c4ccc(F)c5sc(N)c(C#N)c45)c(C(F)(F)F)cc23)CCO1` [Compound 141] was tested. Which IC50 did it give?
**A.** The IC50 was 0.1 to 1 µM.
